Positions of bridges follow the written chain, without caps; N, C: chain ends. Non-standard residues stand in square brackets, D forms with d. Residues, ends and D or L forms follow the SMILES beside them.
Key:
[1] = target: T1, recombinant human GBA1 (rhGBA1, Cerezyme) (Homo sapiens, UniProt P04062, R534H); test: In vitro rhGBA1 inhibition, 4-MU-β-D-glucopyranoside hydrolysis; format: biochemical; conditions: Cerezyme 14 nM, 3.7 mM 4-MU-β-D-glucopyranoside, McIlvaine pH 5.2, 30 min pre-incubation 37 °C + 30 min, mean ± SD from 3 technical triplicates; for IC50: SD
T1 construct: purchased Cerezyme
T1 sequence (P04062 40-536 R534H): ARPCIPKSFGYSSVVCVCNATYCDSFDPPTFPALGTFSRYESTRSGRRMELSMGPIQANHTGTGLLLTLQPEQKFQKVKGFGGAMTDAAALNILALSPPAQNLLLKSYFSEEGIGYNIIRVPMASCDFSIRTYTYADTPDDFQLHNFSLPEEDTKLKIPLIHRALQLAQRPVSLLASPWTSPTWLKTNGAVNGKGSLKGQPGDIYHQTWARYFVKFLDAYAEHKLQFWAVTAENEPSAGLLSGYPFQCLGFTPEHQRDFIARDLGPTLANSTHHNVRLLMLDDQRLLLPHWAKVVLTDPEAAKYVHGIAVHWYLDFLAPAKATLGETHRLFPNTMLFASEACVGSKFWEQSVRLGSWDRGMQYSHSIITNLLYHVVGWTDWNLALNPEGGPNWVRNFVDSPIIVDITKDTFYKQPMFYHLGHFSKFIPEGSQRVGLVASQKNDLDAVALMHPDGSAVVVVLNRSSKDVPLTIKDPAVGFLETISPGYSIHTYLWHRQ
Procedure: (§1) Based on the pull-down validation, a set of eight cyclic peptides (L1, L2, L4, L6, D1, D8, D12 and D13) were identified, synthesized, and evaluated for their inhibitory potency against recombinant human GBA1 (rhGBA1, Cerezyme®) and their selectivity over human β-glucosidases GBA2 and GBA3. Half-maximum inhibitory concentration (IC50) values for β-glucosidases were determined in vitro by measuring hydrolysis of 4-methylumbelliferyl-β-D-glucopyranoside (4-MU-β-D-Glu) fluorogenic substrate. […]
(§2) Pure product fractions were pooled, lyophilized, and dissolved again in DMSO before concentration was determined by A280 using a sample diluted in phosphate buffer at pH 7.4 and extinction coefficients determined from the sequence using the Expasy ProtParam online tool (https://web.expasy.org/protparam/). […]
2.5. In vitro IC50 and Ki measurements
For GBA1, IC50 values were determined using the recombinant human GBA1 (rhGBA1, Cerezyme) following described procedures.4 Enzyme activity was measured using 3.7 mM 4-methylumbeliferone (4MU)-β-D-glucopyranoside in 150 mM McIlvaine buffer pH 5.2 supplemented with 0.1% bovine serum albumin (BSA) (w/v), 0.1% Triton X-100 (v/v), and 0.2% sodium taurocholate (w/v). Varying concentrations of inhibitor (12.5 µL) were incubated with 12.5 µL of enzyme (final concentration 14 nM) at 37 °C for 30 min. Following this, 100 µL of 4MU substrate was added and the samples were again incubated at 37 °C for 30 min. The reaction was quenched using excess 1 M NaOH-glycine (200 µL, pH 10.3) and 4MU fluorescence was measured using a LS55 fluorimeter (λEx 366 nm and λEm 445 […]
30 min at 37 °C (12.5 µL) and subsequently incubated with the tested ligands at a range of concentrations for 30 min at 37 °C (12.5 µL), after which 100 µL 4MU-β-D-glucopyranoside was added for a final incubation of 30 min at 37 °C, quenched with 200 µL 1 M NaOH-glycine (pH 10.3) and fluorescence was measured. IC50 values were calculated using GraphPad Prism version 8.

[2] = target: T2, GBA3 (Homo sapiens, UniProt Q9H227); test: GBA3 inhibition in overexpressing HEK293T lysates; format: biochemical; conditions: 100 mM HEPES, 4-MU substrate
T2 construct: expressed in transfected cells
T2 sequence (Q9H227 1-469): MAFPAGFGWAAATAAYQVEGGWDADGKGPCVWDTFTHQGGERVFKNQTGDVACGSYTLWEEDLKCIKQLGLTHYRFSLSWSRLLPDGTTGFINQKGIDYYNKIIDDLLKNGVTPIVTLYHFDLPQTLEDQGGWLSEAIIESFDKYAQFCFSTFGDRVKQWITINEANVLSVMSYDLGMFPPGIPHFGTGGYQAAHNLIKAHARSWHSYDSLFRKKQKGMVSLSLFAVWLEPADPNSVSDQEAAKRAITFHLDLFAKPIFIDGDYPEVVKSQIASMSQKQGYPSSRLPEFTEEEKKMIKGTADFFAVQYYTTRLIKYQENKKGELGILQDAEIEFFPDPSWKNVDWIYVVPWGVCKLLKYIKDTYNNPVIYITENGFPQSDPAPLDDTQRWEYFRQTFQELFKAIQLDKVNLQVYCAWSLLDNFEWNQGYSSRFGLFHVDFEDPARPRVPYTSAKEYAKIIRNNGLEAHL
Procedure: as §1, §2
2.5. In vitro IC50 and Ki measurements […]
nM) at 37 °C for 30 min. Following this, 100 µL of 4MU substrate was added and the samples were again incubated at 37 °C for 30 min. The reaction was quenched using excess 1 M NaOH-glycine (200 µL, pH 10.3) and 4MU fluorescence was measured using a LS55 fluorimeter (λEx 366 nm and λEm 445 […]
GBA2 and GBA3 IC50 values were determined following a similar protocol,5 using stable GBA2 or GBA3 HEK293T over-expression cell lysates and McIlvaine buffer pH 5.8 with 0.1 % BSA (w/v) and 100 mM HEPES with 0.1 % BSA, respectively. Covalent inhibitor of endogenous GBA1 (1 µM Bodipy green-cyclophellitol β-epoxide activity based probe) was added for both GBA2 and GBA3 assays, and GBA2 inhibitor N-(5-adamantane-1-yl-methoxy-pentyl)-deoxynojirimycin, AMP-DNM at 1 nM) was added for GBA3 assay. Cell lysates were pre-incubated with the aforementioned GBA1/GBA2 inhibitors for 30 min at 37 °C (12.5 µL) and subsequently incubated with the tested ligands at a range of concentrations for 30 min at 37 °C (12.5 µL), after which 100 µL 4MU-β-D-glucopyranoside was added for a final incubation of 30 min at 37 °C, quenched with 200 µL 1 M NaOH-glycine (pH 10.3) and fluorescence was measured. IC50 values were calculated using GraphPad Prism version 8.

| rhGBA1 IC50 [1] | IC50 [1] [µM] | IC50 [2] [µM] | Structure (SMILES) |
| --- | --- | --- | --- |
| low nanomolar | 0.005 ± 0.003 | > 100 | CC[C@H](C)[C@H](NC(=O)[C@H](CC(C)C)NC(=O)[C@H](Cc1ccc(O)cc1)NC(=O)[C@H](Cc1ccc(O)cc1)NC(=O)[C@@H]1CSCC(=O)N[C@H](Cc2ccc(O)cc2)C(=O)N[C@@H](CCCNC(=N)N)C(=O)N[C@@H](C(C)C)C(=O)N1)C(=O)N[C@H](C(=O)N[C@H](C(=O)N[C@@H](CC(C)C)C(=O)N[C@@H](CC(=O)O)C(=O)N[C@@H](CS)C(N)=O)C(C)C)[C@@H](C)O [D1] ({CH2CO}-[dY]RVCYYLITVLDC-NH2; thioether N-4) |
| – | 0.012 ± 0.011 | > 100 | CC(C)C[C@H](NC(=O)[C@@H](NC(=O)[C@H](CCCNC(=N)N)NC(=O)[C@@H]1CSCC(=O)N[C@H](Cc2ccc(O)cc2)C(=O)N[C@@H]([C@@H](C)O)C(=O)N2CCC[C@H]2C(=O)NCC(=O)N[C@@H](Cc2ccc(O)cc2)C(=O)N[C@@H](C(C)C)C(=O)N[C@@H](Cc2ccc(O)cc2)C(=O)N1)C(C)C)C(=O)N[C@@H](CCCCN)C(=O)N[C@@H](Cc1ccc(O)cc1)C(=O)N[C@@H](CS)C(N)=O [D8] ({CH2CO}-[dY]TPGYVYCRVLKYC-NH2; thioether N-8) |
| low nanomolar | 0.004 ± 0.004 | ~85 | CC(C)C[C@@H]1NC(=O)CNC(=O)[C@H](CC(C)C)NC(=O)[C@@H](Cc2ccc(O)cc2)NC(=O)CSC[C@@H](C(N)=O)NC(=O)[C@H](CO)NC(=O)[C@H](CCCCN)NC(=O)[C@H](CC(C)C)NC(=O)[C@H](Cc2ccccc2)NC(=O)[C@H](CCCNC(=N)N)NC(=O)[C@H](Cc2ccc(O)cc2)NC(=O)[C@H](Cc2c[nH]c3ccccc23)NC1=O [D12] ({CH2CO}-[dY]LGLWYRFLKSC-NH2; thioether N-12) |
| high micromolar range | 138 ± 55.8 | > 100 | CC[C@H](C)[C@@H]1NC(=O)[C@H](CO)NC(=O)[C@H](CS)NC(=O)CNC(=O)CNC(=O)[C@H](CC(C)C)NC(=O)[C@H](Cc2ccc(O)cc2)NC(=O)[C@H](C(C)C)NC(=O)[C@H](CC(C)C)NC(=O)[C@H](CCCNC(=N)N)NC(=O)[C@@H]2CCCN2C(=O)[C@H](Cc2ccc(O)cc2)NC(=O)CSC[C@@H](C(N)=O)NC(=O)[C@H](CCC(=O)O)NC(=O)[C@H](CC(C)C)NC(=O)[C@H](CC(C)C)NC1=O [L1] ({CH2CO}-YPRLVYLGGCSILLEC-NH2; thioether N-16) |
| – | 0.34 ± 0.16 | > 100 | CC[C@H](C)[C@H](NC(=O)[C@H](CCCNC(=N)N)NC(=O)[C@@H]1CSCC(=O)N[C@@H](Cc2ccc(O)cc2)C(=O)N[C@@H](C)C(=O)N[C@@H](Cc2ccc(O)cc2)C(=O)N[C@@H](Cc2c[nH]c3ccccc23)C(=O)N[C@@H](Cc2c[nH]c3ccccc23)C(=O)N[C@@H](CC(C)C)C(=O)N1)C(=O)N1CCC[C@H]1C(=O)N[C@@H](Cc1c[nH]c2ccccc12)C(=O)N[C@@H](CC(C)C)C(=O)N[C@@H](CO)C(=O)N[C@H](C(N)=O)C(C)C [L2] ({CH2CO}-YAYWWLCRIPWLSV-NH2; thioether N-7) |
| low nanomolar | 0.009 ± 0.004 | > 100 | CC(C)C[C@@H]1NC(=O)CNC(=O)[C@H](Cc2ccccc2)NC(=O)[C@H](CC(C)C)NC(=O)[C@@H]2CCCN2C(=O)[C@H](Cc2ccc(O)cc2)NC(=O)CSC[C@@H](C(=O)N2CCC[C@H]2C(=O)N[C@@H](CC(N)=O)C(=O)N[C@@H](Cc2c[nH]c3ccccc23)C(=O)N[C@@H](Cc2ccccc2)C(=O)N2CCC[C@H]2C(=O)N[C@@H](Cc2ccc(O)cc2)C(=O)N[C@@H](CCC(N)=O)C(=O)N[C@@H](CS)C(N)=O)NC(=O)[C@H](CO)NC(=O)[C@H](Cc2ccccc2)NC1=O [L4] ({CH2CO}-YPLFGLFSCPNWFPYQC-NH2; thioether N-9) |
| – | 5.66 ± 2.04 | > 100 | CC[C@H](C)[C@@H]1NC(=O)[C@H](Cc2ccc(O)cc2)NC(=O)CSC[C@@H](C(N)=O)NC(=O)[C@H](Cc2c[nH]c3ccccc23)NC(=O)[C@H](CCC(N)=O)NC(=O)[C@H]([C@@H](C)CC)NC(=O)[C@H]([C@@H](C)CC)NC(=O)[C@@H]2CCCN2C(=O)[C@H](C(C)C)NC(=O)[C@H](Cc2ccc(O)cc2)NC(=O)[C@H](Cc2c[nH]c3ccccc23)NC(=O)[C@H](CO)NC1=O [L6] ({CH2CO}-YISWYVPIIQWC-NH2; thioether N-12) |

— article PMC11808397, “Development of selective nanomolar cyclic peptide ligands as GBA1 enzyme stabilisers” (RSC Chemical Biology, 2025)
